Data taken from patent US8653041B2, “Antibacterial aminoglycoside analogs” (Achaogen, Inc., priority 2010, dated 2014).
Values after ≈ are worked out from the molar mass of the structure shown. Read-outs that look alike come from different tables or passages of the source.

Legend:
[1] = test system: Pseudomonas aeruginosa; test: MIC, CLSI broth microdilution, Pseudomonas aeruginosa panel; type: cell-based; conditions: Pseudomonas aeruginosa, read-out: MIC
Protocol: (§1) Minimum inhibitory concentrations (MIC) were determined by reference Clinical and Laboratory Standards Institute (CLSI) broth microdilution methods per M7-A7 [2006]. Quality control ranges utilizing E. coli ATCC 25922, P. aeruginosa ATCC 27853 and S. aureus ATCC 29213, and interpretive criteria for comparator agents were as published in CLSI M100-S17 [2007]. Briefly, serial two-fold dilutions of the test compounds were prepared at 2× concentration in Mueller Hinton Broth. The compound dilutions were mixed in 96-well assay plates in a 1:1 ratio with bacterial inoculum. The inoculum was prepared by suspension of a colony from an agar plate that was prepared the previous day. Bacteria were suspended in sterile saline and added to each assay plate to obtain a final concentration of 5×10^5 CFU/mL. The plates were incubated at 35 C for 20 hours in ambient air.
The MIC panel presented in Table 1 contains 27 isolates of Pseudomonas aeruginosa: strains 1-22 are clinical isolates from around the world collected between 2004-2007 which contain representative resistance mechanisms commonly found in Pseudomonas, such as the AAC(6′)-I, AAC(6′)-II, APH(3′)-IIb, ANT(2″)-I, and perm/efflux; strains 23-27 are susceptible.

[2] = 14-day rat toxicology (nephrotoxicity), once-daily subcutaneous injection
Protocol: The study design utilized once-daily subcutaneous injection administration to the rat for 14 days and assessment of reversibility of any changes following a 28-day recovery period.
The dose volume administered to each animal was 1 mL/kg.

[3] = test system: Acinetobacter baumannii; test: MIC, CLSI broth microdilution, Acinetobacter baumannii panel; type: cell-based; conditions: Acinetobacter baumannii, read-out: MIC
Protocol: as §1
The MIC panel presented in Table 2 contains 29 isolates of Acinetobacter baumannii: strains 1-24 are clinical isolates from around the world collected between 2004-2007 which contain representative resistance mechanisms commonly found in Acinetobacter baumannii, such as AAC(3)-I and II, AAC(6′)-I, ANT(2″)-I, APH(3′)-VI, and perm/efflux; strains 25-29 are susceptible.

Compound: NC[C@@H]1O[C@H](O[C@H]2[C@@H](O)[C@H](O[C@@H]3[C@@H](O)[C@H](NC(=O)[C@@H](O)CN)C[C@H](N)[C@H]3O[C@H]3O[C@H](CNCCO)[C@@H](O)C[C@H]3N)O[C@@H]2CO)[C@H](N)[C@@H](O)[C@@H]1O [Compound 20]
- MIC ([1]; P. aeruginosa clinical strain 1 (resistant clinical isolate)): ≤ 1 mg/L
- MIC ([1]; P. aeruginosa clinical strain 2 (resistant clinical isolate)): ≤ 1 mg/L
- MIC ([1]; P. aeruginosa clinical strain 3 (resistant clinical isolate)): 1 to 8 mg/L (≈ 1.37 to 11 µM)
- MIC ([1]; P. aeruginosa clinical strain 4 (resistant clinical isolate)): 1 to 8 mg/L (≈ 1.37 to 11 µM)
- MIC ([1]; P. aeruginosa clinical strain 5 (resistant clinical isolate)): 1 to 8 mg/L (≈ 1.37 to 11 µM)
- MIC ([1]; P. aeruginosa clinical strain 6 (resistant clinical isolate)): 1 to 8 mg/L (≈ 1.37 to 11 µM)
- MIC ([1]; P. aeruginosa clinical strain 7 (resistant clinical isolate)): ≤ 1 mg/L
- MIC ([1]; P. aeruginosa clinical strain 8 (resistant clinical isolate)): 1 to 8 mg/L (≈ 1.37 to 11 µM)
- MIC ([1]; P. aeruginosa clinical strain 9 (resistant clinical isolate)): ≤ 1 mg/L
- MIC ([1]; P. aeruginosa clinical strain 10 (resistant clinical isolate)): 1 to 8 mg/L (≈ 1.37 to 11 µM)
- MIC ([1]; P. aeruginosa clinical strain 11 (resistant clinical isolate)): ≤ 1 mg/L
- MIC ([1]; P. aeruginosa clinical strain 12 (resistant clinical isolate)): ≤ 1 mg/L
- MIC ([1]; P. aeruginosa clinical strain 13 (resistant clinical isolate)): 8 to 16 mg/L (≈ 11 to 21.9 µM)
- MIC ([1]; P. aeruginosa clinical strain 14 (resistant clinical isolate)): ≤ 1 mg/L
- MIC ([1]; P. aeruginosa clinical strain 15 (resistant clinical isolate)): 1 to 8 mg/L (≈ 1.37 to 11 µM)
- MIC ([1]; P. aeruginosa clinical strain 16 (resistant clinical isolate)): ≤ 1 mg/L
- MIC ([1]; P. aeruginosa clinical strain 17 (resistant clinical isolate)): 1 to 8 mg/L (≈ 1.37 to 11 µM)
- MIC ([1]; P. aeruginosa clinical strain 18 (resistant clinical isolate)): 1 to 8 mg/L (≈ 1.37 to 11 µM)
- MIC ([1]; P. aeruginosa clinical strain 19 (resistant clinical isolate)): 16 to 32 mg/L (≈ 21.9 to 43.8 µM)
- MIC ([1]; P. aeruginosa clinical strain 20 (resistant clinical isolate)): 16 to 32 mg/L (≈ 21.9 to 43.8 µM)
- MIC ([1]; P. aeruginosa clinical strain 21 (resistant clinical isolate)): 1 to 8 mg/L (≈ 1.37 to 11 µM)
- MIC ([1]; P. aeruginosa clinical strain 22 (resistant clinical isolate)): 1 to 8 mg/L (≈ 1.37 to 11 µM)
- MIC ([1]; P. aeruginosa strain 23 (susceptible)): ≤ 1 mg/L
- MIC ([1]; P. aeruginosa strain 24 (susceptible)): ≤ 1 mg/L
- MIC ([1]; P. aeruginosa strain 25 (susceptible)): ≤ 1 mg/L
- MIC ([1]; P. aeruginosa strain 26 (susceptible)): ≤ 1 mg/L
- MIC ([1]; P. aeruginosa strain 27 (susceptible)): ≤ 1 mg/L
- mortality ([2]; 10, 30 or 100 mg/kg/day subcutaneous, once daily, 14 days, Sprague-Dawley rat): did not result in mortality at any dose
- macroscopic or microscopic changes to the kidneys ([2]; rat, in vivo): nor any significant macroscopic or microscopic changes to the kidneys
- MIC ([3]; A. baumannii clinical strain 1 (resistant clinical isolate)): 1 to 8 mg/L (≈ 1.37 to 11 µM)
- MIC ([3]; A. baumannii clinical strain 2 (resistant clinical isolate)): 1 to 8 mg/L (≈ 1.37 to 11 µM)
- MIC ([3]; A. baumannii clinical strain 3 (resistant clinical isolate)): ≤ 1 mg/L
- MIC ([3]; A. baumannii clinical strain 4 (resistant clinical isolate)): 16 to 32 mg/L (≈ 21.9 to 43.8 µM)
- MIC ([3]; A. baumannii clinical strain 5 (resistant clinical isolate)): ≤ 1 mg/L
- MIC ([3]; A. baumannii clinical strain 6 (resistant clinical isolate)): 1 to 8 mg/L (≈ 1.37 to 11 µM)
- MIC ([3]; A. baumannii clinical strain 7 (resistant clinical isolate)): ≤ 1 mg/L
- MIC ([3]; A. baumannii clinical strain 8 (resistant clinical isolate)): ≤ 1 mg/L
- MIC ([3]; A. baumannii clinical strain 9 (resistant clinical isolate)): ≤ 1 mg/L
- MIC ([3]; A. baumannii clinical strain 10 (resistant clinical isolate)): 1 to 8 mg/L (≈ 1.37 to 11 µM)
- MIC ([3]; A. baumannii clinical strain 11 (resistant clinical isolate)): ≤ 1 mg/L
- MIC ([3]; A. baumannii clinical strain 12 (resistant clinical isolate)): ≤ 1 mg/L
- MIC ([3]; A. baumannii clinical strain 13 (resistant clinical isolate)): ≤ 1 mg/L
- MIC ([3]; A. baumannii clinical strain 14 (resistant clinical isolate)): ≤ 1 mg/L
- MIC ([3]; A. baumannii clinical strain 15 (resistant clinical isolate)): ≤ 1 mg/L
- MIC ([3]; A. baumannii clinical strain 16 (resistant clinical isolate)): 1 to 8 mg/L (≈ 1.37 to 11 µM)
- MIC ([3]; A. baumannii clinical strain 17 (resistant clinical isolate)): 1 to 8 mg/L (≈ 1.37 to 11 µM)
- MIC ([3]; A. baumannii clinical strain 18 (resistant clinical isolate)): 1 to 8 mg/L (≈ 1.37 to 11 µM)
- MIC ([3]; A. baumannii clinical strain 19 (resistant clinical isolate)): 1 to 8 mg/L (≈ 1.37 to 11 µM)
- MIC ([3]; A. baumannii clinical strain 20 (resistant clinical isolate)): 1 to 8 mg/L (≈ 1.37 to 11 µM)
- MIC ([3]; A. baumannii clinical strain 21 (resistant clinical isolate)): ≤ 1 mg/L
- MIC ([3]; A. baumannii clinical strain 22 (resistant clinical isolate)): 8 to 16 mg/L (≈ 11 to 21.9 µM)
- MIC ([3]; A. baumannii clinical strain 23 (resistant clinical isolate)): ≤ 1 mg/L
- MIC ([3]; A. baumannii clinical strain 24 (resistant clinical isolate)): 1 to 8 mg/L (≈ 1.37 to 11 µM)
- MIC ([3]; A. baumannii strain 25 (susceptible)): ≤ 1 mg/L
- MIC ([3]; A. baumannii strain 26 (susceptible)): ≤ 1 mg/L
- MIC ([3]; A. baumannii strain 27 (susceptible)): ≤ 1 mg/L
- MIC ([3]; A. baumannii strain 28 (susceptible)): ≤ 1 mg/L
- MIC ([3]; A. baumannii strain 29 (susceptible)): ≤ 1 mg/L
